According to patent US9989532B2, “Methods and compositions for detecting coagulation inhibitors” (The University of North Carolina at Chapel Hill, priority 2013, dated 2018):

How the values were obtained:
thrombin = biological target: T1, thrombin (Homo sapiens, UniProt P00734); assay: substrate cleavage by thrombin in presence of sample; assay type: biochemical; conditions: substance in sample; substrate methoxycarbonyl-D-cyclohexylalanyl-glycyl-arginine-para-nitroaniline
T1 construct: Thrombin (factor IIa) was purchased from Haematologic Technologies; purchased Haematologic Technologies
Method: (§1) Substrate cleavage in the presence of test sample is measured for all four test conditions.
(§2) There are any number of substrates for thrombin and factor Xa and other proteases as described herein that can be used in the methods of this invention. In some embodiments, the substrate is a chromogenic substrate, which can be a para-nitroanalide synthetic substrate. Non-limiting examples of a chromogenic substrate of this invention include tosyl-glycyl-prolyl-arginine para-nitroanilide, H-D-cyclohexylglycyl-alanyl-arginine para-nitroanilide, H-beta-alanyl-glycyl-arginine para-nitroanilide, H-D-cyclohexylalanyl-alanyl-arginine para-nitroanilide, H-D-phenylalanyl-pipecolyl-arginine para-nitroanilide, H-D-(carbobenzoyl)lysyl-prolyl-arginine para-nitroanilide, H-beta-alanyl-glycyl-arginine 7-amino-4-methylcoumarin, H-D-cyclohexylglycyl-alanyl-arginine 7-amino-4-methylcoumarin, H-D-(carbobenzoyl)lysyl-prolyl-arginine 7-amino-4-methylcoumarin, methoxycarbonyl-D-cyclohexylalanyl-glycyl-arginine para-nitroanilide, methoxycarbonyl-D-cyclohexylglycyl-glycyl-arginine para-nitroanilide, benzoyloxycarbonyl-D-arginyl-glycyl-arginine para-nitroanilide, benzoyl-isoleucyl-glutamyl-glycyl-arginine para-nitroanilide, methylsulfonyl-D-cyclohexylalanyl-glycyl-arginine 7-amino-4-methylcoumarin, and methoxycarbonyl-D-cyclohexylalanyl-glycyl-arginine 7-amino-4-methylcoumarin.
(§3) Thrombin (factor IIa) was purchased from Haematologic Technologies. Factor Xa was purchased from Enzyme Research Labs.

a2M-thrombin (a2M-IIa) = biological target: T2, a2M-thrombin (a2M-IIa) (Homo sapiens, UniProt P00734); assay: substrate cleavage by a2M-IIa (thrombin caged in alpha-2-macroglobulin); assay type: biochemical; conditions: for cleavage of the substrate, (b) a2M-thrombin (a2M-IIa): substance in sample, substrate methoxycarbonyl-D-cyclohexylalanyl-glycyl-arginine-para-nitroaniline
T2 construct: Thrombin (factor IIa) was purchased from Haematologic Technologies; host or cells: no expression host: complex formed in vitro from purchased thrombin and a2M purified from human plasma, then purified on Q-Sepharose
Method: as §1, §2
(§4) 0.5 mM of para-nitroanilide synthetic substrate (Pefachrome FXa) was added and the rate of substrate cleavage determined by appearance of yellow color characteristic of the cleaved substrate. Pefachrome FXa is also effective as a substrate for thrombin.
Purified a2M-IIa was eluted from the column with 1M sodium chloride in 20 mM HEPES (pH 7.4).
(§5) The rates of substrate cleavage were converted to concentrations using measured Km and kcat values determined as previously described (Joost et al. “Inhibition of human blood coagulation factor Xa by alpha-2-macroglobulin” Biochemistry 26:5932-5937 (1987) doi: 10.1021/bi00392a053) (FIGS. 1-5).

factor Xa = biological target: T3, factor Xa (Homo sapiens, UniProt P00742); assay: substrate cleavage by factor Xa in presence of sample; assay type: biochemical; conditions: substance in sample; substrate methoxycarbonyl-D-cyclohexylalanyl-glycyl-arginine-para-nitroaniline
T3 construct: Factor Xa was purchased from Enzyme Research Labs; purchased Enzyme Research Labs
T3 sequence (P00742 235-488 limits assumed): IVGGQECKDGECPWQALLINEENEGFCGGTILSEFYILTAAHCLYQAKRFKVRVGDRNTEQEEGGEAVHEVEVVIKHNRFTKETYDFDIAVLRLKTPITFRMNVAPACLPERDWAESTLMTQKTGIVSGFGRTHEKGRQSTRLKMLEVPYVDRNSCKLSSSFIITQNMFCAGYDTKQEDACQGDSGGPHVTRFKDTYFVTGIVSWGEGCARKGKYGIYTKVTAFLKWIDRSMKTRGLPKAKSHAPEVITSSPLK
T3 sequence (P00742 41-179 limits assumed): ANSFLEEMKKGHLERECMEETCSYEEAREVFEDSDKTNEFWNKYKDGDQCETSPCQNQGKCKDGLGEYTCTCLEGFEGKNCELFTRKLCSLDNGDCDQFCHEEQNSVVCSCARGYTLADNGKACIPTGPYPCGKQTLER
Method: as §1, §2, §3

a2M-Xa [1] = biological target: T4, a2M-Xa (Homo sapiens, UniProt P00742); assay: substrate cleavage by a2M-Xa (factor Xa caged in alpha-2-macroglobulin); assay type: biochemical; design: Factor Xa was purchased from Enzyme Research Labs; host or cells: no expression host: complex formed in vitro from purchased factor Xa and a2M purified from human plasma, then purified on heparin Sepharose and Q-Sepharose; conditions: for cleavage of the substrate, (d) a2M-Xa: substance in sample, substrate methoxycarbonyl-D-cyclohexylalanyl-glycyl-arginine-para-nitroaniline
Method: as §1, §2, §4, §5

[2] = cited from earlier work; for time to peak plasma concentration: after oral ingestion
mice = assay: saphenous vein injury bleeding time in mice; assay type: in vivo; conditions: FIG. 6, normal mouse
Method: Mice were administered 160 μg/kg rivaroxaban designed to produce a free plasma level of 36 ng/mL (75 nM), assuming 1.6% recovery based on estimates from Gnoth et al. (“in vitro and in vivo P-glycoprotein transport characteristics of rivaroxaban” J Pharmacol Exp Thor. 338:372-380 (2011) doi: 10.1124/jpet.111.180240) and Weinz et al. (“Pharmacokinetics of BAY 59-7939—an oral, direct Factor Xa inhibitor—in rats and dogs” Xenobiotica 35:891-910 (2005) doi: 10.1080/00498250500250493) and accounting for 95-98% blood cell and plasma protein binding (Weinz et al. “Pharmacokinetics of BAY 59-7939—an oral, direct Factor Xa inhibitor—in rats and dogs” Xenobiotica 35:891-910 (2005))

a2M-IIa = a2M-IIa substrate cleavage test on plasma of fed mice
Method: (§6) Mice were fed Xarelto or Pradaxa or regular chow. Plasma from the animals was analyzed for the presence of dabigatran (active metabolite of Pradaxa) or rivaroxaban (active component of Xarelto). […] 0.5 mM of para-nitroanilide synthetic substrate (Pefachrome FXa) was added and substrate cleavage was determined by appearance of yellow color characteristic of the cleaved substrate.

[3] = cited from earlier work
a2M-Xa [4] = biological target: T4, a2M-Xa; conditions: substance in plasma of mice fed Pradaxa or Xarelto
Method: as §6

[5] = assumed, based on estimates from Gnoth et al. and Weinz et al.; cited from earlier work

Compound | cleavage of the substrate, (a) Thrombin (thrombin) | cleavage of the substrate, (b) a2M-thrombin (a2M-IIa) (a2M-thrombin (a2M-IIa)) | cleavage of the substrate, (c) Factor Xa (factor Xa) | cleavage of the substrate, (d) a2M-Xa (a2M-Xa [1]) | oral bioavailability [2] | time to peak plasma concentration [2] | also measured
CC(=O)CC(c1ccccc1)c1c(O)c2ccccc2oc1=O (stereo not drawn) [Warfarin] | Cleavage | Cleavage | Cleavage | Cleavage | – | – | –
COc1ccc(-n2nc(C(N)=O)c3c2C(=O)N(c2ccc(N4CCCCC4=O)cc2)CC3)cc1 [apixaban] | – | – | – | – | more than 50% | – | eliminated by the kidneys ([2]; in vivo): 25%; metabolism ([2]; in vivo): metabolized in part by CYP3A4
[H]/N=C(/N)c1ccc(NCc2nc3cc(C(=O)N(CCC(=O)O)c4ccccn4)ccc3n2C)cc1 [dabigatran] | – | – | – | – | 7.2% | approximately 1.5 hours | time for saphenous vein injury to stop bleeding (mice; 7 μg/kg dabigatran alone): more than 2 minutes; presence of Dabigatran in plasma (a2M-IIa; mice fed Pradaxa, animals 7-12): yes; presence of Dabigatran in plasma (a2M-IIa; mice fed Xarelto, animals 1-6): no; peak plasma level ([2]; healthy human volunteers): 150 ng/mL; route of excretion ([2]; oral treatment): predominantly excreted in the feces; bound to plasma proteins [3]: 35%
O=C(NC[C@H]1CN(c2ccc(N3CCOCC3=O)cc2)C(=O)O1)c1ccc(Cl)s1 [rivaroxaban] | Cleavage | Cleavage | No | No | more than 80% | approximately 3 hours | effect on substrate cleavage by purified a2M-IIa (a2M-thrombin (a2M-IIa); FIG. 1, buffer pH 7.4, 5 minutes incubation, 0.5 mM Pefachrome FXa): did not block substrate cleavage; time for saphenous vein injury to stop bleeding (mice; 160 μg/kg rivaroxaban alone): ~2 min; effect on a2M-IIa cleavage of substrate (a2M-IIa; substance in plasma of mice fed Pradaxa or Xarelto): had no effect; effect on a2M-Xa cleavage of substrate (a2M-Xa [4]): blocked; food effect on absorption from the gastrointestinal tract ([2]; in vivo): food does not affect absorption; excreted by the kidneys ([2]; orally ingested): Sixty-six; terminal half-life ([2]; steady state, patients >75 years old): up to 12 hours; blood cell and plasma protein binding [3]: 95-98%; recovery [5]: 1.6%; effect on substrate cleavage by purified a2M-Xa (a2M-Xa [1]; FIG. 2, buffer pH 7.4, 5 minutes incubation, 0.5 mM Pefachrome FXa): blocked substrate cleavage
heparin | No | Cleavage | No | Cleavage | – | – | –
low molecular weight heparin | Cleavage | Cleavage | No | Cleavage | – | – | –
